The values that follow come from PubChem BioAssay (NCI).

Some test systems named below: HCT-116 colon; OVCAR-8 ovarian; PC-3 prostate; CAKI-1 renal; SNB-75 CNS; SK-MEL-28 melanoma; OVCAR-3 ovarian; ACHN renal; U251 CNS; SF-539 CNS; NCI/ADR-RES ovarian; SF-295 CNS; A549 NSCLC; DU-145 prostate; NCI-H226 lung; SF-268 CNS; NCI-H460 lung; NCI-H522 lung; UO-31 renal; KM12 colon.
Common to all, as to test: growth of human tumour cells (NCI), 48 h

Each structure is given as a SMILES string.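 Results reflect a 48-hour exposure of cells in 96-well plates to compound at five concentrations. TGI denotes the concentration required for complete inhibition of growth.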

For the molecule `COc1ccccc1OC(=O)/C=C/c1ccccc1`, the TGI with HCT-116 colon, in the assay on OVCAR-8 ovarian, in the assay with PC-3 prostate, in the assay with CAKI-1 renal, in the assay on SNB-75 CNS and in the assay with SK-MEL-28 melanoma was over 100 µM in each case. For the same molecule, the TGI in the assay with OVCAR-3 ovarian, in the assay with ACHN renal, in the assay on U251 CNS, in the assay on SF-539 CNS, in the assay on NCI/ADR-RES ovarian and in the assay with SF-295 CNS was over 100 µM each time. Besides, the TGI in the assay with A549 NSCLC, in the assay with DU-145 prostate, with NCI-H226 lung, in the assay on SF-268 CNS, in the assay with NCI-H460 lung and with NCI-H522 lung was over 100 µM in each case. Further, the TGI in the assay with UO-31 renal and in the assay on KM12 colon was over 100 µM throughout.
For `Cc1cc(=O)oc2c(CNC(C(=O)O)C(C)O)c(O)ccc12` (stereo not given), the TGI with HCT-116 colon, in the assay with OVCAR-8 ovarian, in the assay with PC-3 prostate, with CAKI-1 renal, in the assay with SNB-75 CNS and in the assay on SK-MEL-28 melanoma was over 100 µM each time. Besides, the TGI in the assay with OVCAR-3 ovarian, in the assay on ACHN renal, with U251 CNS, in the assay on SF-539 CNS, in the assay on NCI/ADR-RES ovarian and in the assay with SF-295 CNS was over 100 µM throughout. Besides, the TGI in the assay with A549 NSCLC, with DU-145 prostate, in the assay on NCI-H226 lung, in the assay with SF-268 CNS, in the assay on NCI-H460 lung and with NCI-H522 lung was over 100 µM each time. Further, the TGI in the assay on UO-31 renal and in the assay on KM12 colon was over 100 µM throughout.
For the molecule `Oc1[nH]c2ccccc2c1N=NC(=S)N1CCCC1`, the TGI was 21.5 µM in the assay on HCT-116 colon; 13.6 µM in the assay with OVCAR-8 ovarian; 57.8 µM in the assay on PC-3 prostate; 10.8 µM in the assay on CAKI-1 renal; 14.1 µM with SNB-75 CNS; over 100 µM in the assay with SK-MEL-28 melanoma. The TGI in the assay with OVCAR-3 ovarian was 17 µM; in the assay with ACHN renal, 4.55 µM; in the assay with U251 CNS, 22.6 µM; with SF-539 CNS it was 10.7 µM; in the assay with NCI/ADR-RES ovarian it was 6.03 µM; with SF-295 CNS, 17.1 µM. Further, the TGI in the assay with A549 NSCLC was 13.6 µM; with DU-145 prostate, over 100 µM; in the assay with NCI-H226 lung, 1.88 µM; in the assay with SF-268 CNS, over 58.3 µM; with NCI-H460 lung, 9.42 µM; in the assay on NCI-H522 lung, 38.9 µM. Besides, the TGI in the assay on UO-31 renal is 11.3 µM; in the assay on KM12 colon, over 49.5 µM.
Regarding `c1ccc2c3nnc(c2c1)SCCSCCCSCCS3`, the TGI in the assay with HCT-116 colon is over 100 µM; in the assay on OVCAR-8 ovarian, over 100 µM; with PC-3 prostate, over 100 µM; in the assay on CAKI-1 renal it was over 100 µM; with SNB-75 CNS, 18.5 µM; in the assay on SK-MEL-28 melanoma, over 100 µM. Also, the TGI with OVCAR-3 ovarian is over 100 µM; in the assay on ACHN renal, over 100 µM; in the assay on U251 CNS, over 100 µM; in the assay on SF-539 CNS, 40.6 µM; with NCI/ADR-RES ovarian, over 100 µM; with SF-295 CNS, over 100 µM. The TGI in the assay on A549 NSCLC, in the assay on DU-145 prostate, in the assay on NCI-H226 lung, in the assay on SF-268 CNS, in the assay on NCI-H460 lung and with NCI-H522 lung was over 100 µM in each case. The TGI in the assay on UO-31 renal and with KM12 colon was over 100 µM throughout.
Take `O=c1cc(-c2ccccc2Cl)[nH]c2cc3c(cc12)OCO3`: the TGI with HCT-116 colon is 16 µM; with OVCAR-8 ovarian it was 9.88 µM; in the assay on PC-3 prostate, over 100 µM; in the assay on CAKI-1 renal it was 39.9 µM; in the assay on SNB-75 CNS, over 100 µM; in the assay with SK-MEL-28 melanoma it was over 63.3 µM. The TGI was 0.4 µM with OVCAR-3 ovarian; over 73.9 µM in the assay with ACHN renal; 1.25 µM in the assay with U251 CNS; 0.458 µM in the assay with SF-539 CNS; 0.0698 µM with NCI/ADR-RES ovarian; 3.03 µM in the assay on SF-295 CNS. In addition, the TGI with A549 NSCLC was over 16.7 µM; with DU-145 prostate, over 18.8 µM; in the assay with NCI-H226 lung it was 0.689 µM; in the assay on SF-268 CNS it was over 58.9 µM; in the assay with NCI-H460 lung it was 5.24 µM; in the assay on NCI-H522 lung it was 0.489 µM. The TGI in the assay with UO-31 renal is over 20 µM; in the assay on KM12 colon, over 31.6 µM.
As for `COc1nc2c(c(=O)n1C)NC(C(O)C(O)CO)C=N2` (stereo not given), the TGI in the assay on HCT-116 colon, with OVCAR-8 ovarian, in the assay with PC-3 prostate, in the assay on CAKI-1 renal, in the assay with SNB-75 CNS and in the assay with SK-MEL-28 melanoma was over 10 µM each time. The TGI in the assay on OVCAR-3 ovarian, in the assay on ACHN renal, in the assay with U251 CNS, in the assay with SF-539 CNS, in the assay on NCI/ADR-RES ovarian and in the assay on SF-295 CNS was over 10 µM throughout. The TGI with A549 NSCLC, with DU-145 prostate, in the assay with NCI-H226 lung, in the assay with SF-268 CNS, in the assay on NCI-H460 lung and in the assay with NCI-H522 lung was over 10 µM each time. Further, the TGI with UO-31 renal and with KM12 colon was over 10 µM throughout.
For `COc1ccc(-n2c(=O)n(C)c(=O)n2-c2c(C)c(C)c(C)c(C)c2C)cc1`, the TGI in the assay on HCT-116 colon, in the assay with OVCAR-8 ovarian, in the assay on PC-3 prostate, with CAKI-1 renal, in the assay with SNB-75 CNS and in the assay on SK-MEL-28 melanoma was over 100 µM throughout. Besides, the TGI in the assay with OVCAR-3 ovarian, in the assay on ACHN renal, with U251 CNS, in the assay on SF-539 CNS, with NCI/ADR-RES ovarian and in the assay with SF-295 CNS was over 100 µM throughout. For the same molecule, the TGI with A549 NSCLC, in the assay on DU-145 prostate, in the assay with NCI-H226 lung, in the assay on SF-268 CNS, with NCI-H460 lung and with NCI-H522 lung was over 100 µM each time. In addition, the TGI in the assay on UO-31 renal and in the assay on KM12 colon was over 100 µM each time.
